Results taken from ChEMBL document CHEMBL3044680, “Synthesis, characterization, and antimicrobial studies of novel 1,3,4-thiadiazolium-5-thiolates” (2012).
Converted amounts (≈) assume the structure as drawn.

Legend:
Format in all cases: functional
Pseudomonas aeruginosa [1] = assay: Antimicrobial activity against Pseudomonas aeruginosa after overnight incubation by broth dilution method
Escherichia coli [2] = assay: Antimicrobial activity against Escherichia coli after overnight incubation by broth dilution method
Bacillus subtilis [3] = assay: Antimicrobial activity against Bacillus subtilis after overnight incubation by broth dilution method
Staphylococcus aureus [4] = assay: Antimicrobial activity against Staphylococcus aureus after overnight incubation by broth dilution method
Pseudomonas aeruginosa [5] = assay: Antimicrobial activity against Pseudomonas aeruginosa at 200 ug/ml after 48 hr by cup-plate method; details: read-out: IZ
Bacillus subtilis [6] = assay: Antimicrobial activity against Bacillus subtilis at 200 ug/ml after 48 hr by cup-plate method; details: read-out: IZ
Escherichia coli [7] = assay: Antimicrobial activity against Escherichia coli at 200 ug/ml after 48 hr by cup-plate method; details: read-out: IZ
Staphylococcus aureus [8] = assay: Antimicrobial activity against Staphylococcus aureus at 200 ug/ml after 48 hr by cup-plate method; details: read-out: IZ

| MIC (Pseudomonas aeruginosa [1]) [µg/mL] | MIC (Escherichia coli [2]) [µg/mL] | MIC (Bacillus subtilis [3]) [µg/mL] | MIC (Staphylococcus aureus [4]) [µg/mL] | Compound | zone of inhibition at 200 µg/mL (Pseudomonas aeruginosa [5]) [mm] | zone of inhibition at 200 µg/mL (Bacillus subtilis [6]) [mm] | zone of inhibition at 200 µg/mL (Escherichia coli [7]) [mm] | zone of inhibition at 200 µg/mL (Staphylococcus aureus [8]) [mm] |
| --- | --- | --- | --- | --- | --- | --- | --- | --- |
| 16 (≈ 35 µM) | 32 (≈ 70.1 µM) | 8 (≈ 17.5 µM) | 1 (≈ 2.19 µM) | Cc1sc([S-])n[n+]1C(=O)c1ccc(-n2c(-c3ccccc3)nc3ccccc3c2=O)cc1 | 18 | 22 | 17 | 28 |
| 8 (≈ 15.4 µM) | 2 (≈ 3.86 µM) | 2 (≈ 3.86 µM) | 4 (≈ 7.71 µM) | O=C(c1ccc(-n2c(-c3ccccc3)nc3ccccc3c2=O)cc1)[n+]1nc([S-])sc1-c1ccccc1 | 22 | 25 | 28 | 24 |
| 8 (≈ 13.4 µM) | 16 (≈ 26.8 µM) | 16 (≈ 26.8 µM) | 2 (≈ 3.34 µM) | O=C(c1ccc(-n2c(-c3ccccc3)nc3ccccc3c2=O)cc1)[n+]1nc([S-])sc1-c1cc([N+](=O)[O-])ccc1Cl | 22 | 18 | 19 | 26 |
| 4 (≈ 6.69 µM) | 8 (≈ 13.4 µM) | 64 (≈ 107 µM) | 8 (≈ 13.4 µM) | O=C(c1ccc(-n2c(-c3ccccc3)nc3ccccc3c2=O)cc1)[n+]1nc([S-])sc1-c1ccc(Cl)c([N+](=O)[O-])c1 | 24 | 14 | 22 | 20 |
| 2 (≈ 3.37 µM) | 32 (≈ 53.9 µM) | 32 (≈ 53.9 µM) | 16 (≈ 27 µM) | COc1ccc(-c2sc([S-])n[n+]2C(=O)c2ccc(-n3c(-c4ccccc4)nc4ccccc4c3=O)cc2)cc1[N+](=O)[O-] | 27 | 16 | 15 | 19 |
| 8 (≈ 14.5 µM) | 16 (≈ 28.9 µM) | 8 (≈ 14.5 µM) | 8 (≈ 14.5 µM) | O=C(c1ccc(-n2c(-c3ccccc3)nc3ccccc3c2=O)cc1)[n+]1nc([S-])sc1-c1ccc(Cl)cc1 | 21 | 20 | 16 | 22 |
| 8 (≈ 14.2 µM) | 4 (≈ 7.1 µM) | 4 (≈ 7.1 µM) | 8 (≈ 14.2 µM) | O=C(c1ccc(-n2c(-c3ccccc3)nc3ccccc3c2=O)cc1)[n+]1nc([S-])sc1-c1ccc([N+](=O)[O-])cc1 | 22 | 24 | 23 | 20 |
| – | 64 (≈ 114 µM) | 64 (≈ 114 µM) | 64 (≈ 114 µM) | O=C(c1ccc(-n2c(-c3ccccc3)nc3ccccc3c2=O)cc1)[n+]1nc([S-])sc1-c1cccc([N+](=O)[O-])c1 | 10 | 15 | 13 | 11 |
| 4 (≈ 8.78 µM) | 8 (≈ 17.6 µM) | 8 (≈ 17.6 µM) | 16 (≈ 35.1 µM) | Cc1sc([S-])n[n+]1C(=O)c1ccc(Nc2nc(-c3ccccc3)nc3ccccc23)cc1 | 23 | 21 | 20 | 19 |
| 4 (≈ 7.73 µM) | 8 (≈ 15.5 µM) | 16 (≈ 30.9 µM) | 16 (≈ 30.9 µM) | O=C(c1ccc(Nc2nc(-c3ccccc3)nc3ccccc23)cc1)[n+]1nc([S-])sc1-c1ccccc1 | 24 | 18 | 20 | 19 |
| 2 (≈ 3.35 µM) | 4 (≈ 6.7 µM) | 8 (≈ 13.4 µM) | 4 (≈ 6.7 µM) | O=C(c1ccc(Nc2nc(-c3ccccc3)nc3ccccc23)cc1)[n+]1nc([S-])sc1-c1cc([N+](=O)[O-])ccc1Cl | 26 | 22 | 24 | 23 |
| 8 (≈ 13.4 µM) | 32 (≈ 53.6 µM) | 16 (≈ 26.8 µM) | 8 (≈ 13.4 µM) | O=C(c1ccc(Nc2nc(-c3ccccc3)nc3ccccc23)cc1)[n+]1nc([S-])sc1-c1ccc(Cl)c([N+](=O)[O-])c1 | 22 | 19 | 15 | 20 |
| 8 (≈ 13.5 µM) | 4 (≈ 6.75 µM) | 4 (≈ 6.75 µM) | 8 (≈ 13.5 µM) | COc1ccc(-c2sc([S-])n[n+]2C(=O)c2ccc(Nc3nc(-c4ccccc4)nc4ccccc34)cc2)cc1[N+](=O)[O-] | 22 | 24 | 23 | 22 |
| 4 (≈ 7.25 µM) | 8 (≈ 14.5 µM) | 8 (≈ 14.5 µM) | 16 (≈ 29 µM) | O=C(c1ccc(Nc2nc(-c3ccccc3)nc3ccccc23)cc1)[n+]1nc([S-])sc1-c1ccc(Cl)cc1 | 24 | 21 | 22 | 19 |
| 32 (≈ 56.9 µM) | 16 (≈ 28.4 µM) | 16 (≈ 28.4 µM) | 32 (≈ 56.9 µM) | O=C(c1ccc(Nc2nc(-c3ccccc3)nc3ccccc23)cc1)[n+]1nc([S-])sc1-c1ccc([N+](=O)[O-])cc1 | 15 | 19 | 18 | 16 |
| 8 (≈ 14.2 µM) | 16 (≈ 28.4 µM) | 32 (≈ 56.9 µM) | 8 (≈ 14.2 µM) | O=C(c1ccc(Nc2nc(-c3ccccc3)nc3ccccc23)cc1)[n+]1nc([S-])sc1-c1cccc([N+](=O)[O-])c1 | 22 | 16 | 20 | 21 |

| Compound | MIC (Pseudomonas aeruginosa [1]) [µg/mL] | MIC (Escherichia coli [2]) [µg/mL] | MIC (Bacillus subtilis [3]) [µg/mL] | MIC (Staphylococcus aureus [4]) [µg/mL] | zone of inhibition at 200 µg/mL (Pseudomonas aeruginosa [5]) [mm] | zone of inhibition at 200 µg/mL (Bacillus subtilis [6]) [mm] | zone of inhibition at 200 µg/mL (Escherichia coli [7]) [mm] | zone of inhibition at 200 µg/mL (Staphylococcus aureus [8]) [mm] |
| --- | --- | --- | --- | --- | --- | --- | --- | --- |
| O=C(O)c1cn(C2CC2)c2cc(N3CCNCC3)c(F)cc2c1=O [CIPROFLOXACIN] | – | – | 0.5 (≈ 1.51 µM) | 1 (≈ 3.02 µM) | 41 | 35 | 38 | 31 |
